Assay results taken from US20260306644A1, “ANTIBODY RECRUITING MOLECULES FOR THE TREATMENT OF CORONAVIRUS DISEASE-19” (priority 2023, published 2026).
Several values for one entry are separate records, joined by “and”; a condition that tells them apart may be missing. Identical values can stand only once. Like-named read-outs stand apart in the source and are kept apart here. Positions of bridges follow the written chain, without caps; N, C: chain ends. Residues, ends and D or L forms follow the SMILES beside them. No end group written: not given here. *: point of attachment. Biotin = O=C1N[C@H]2[C@H](CS[C@H]2CCCCC(=O)*)N1; PEG4 = NCCOCCOCCOCCOCCC(=O)O

Columns and labels:
[1] = system: Spike RBD coated magnetic beads / RAW 264.7 macrophages; assay: Antibody-dependent cellular phagocytosis (ADCP), RAW 264.7 macrophages and Spike RBD coated magnetic beads, flow cytometry; type: cell-based; settings: 37° C., 2 hours, read-out: SARS-COV-2 ADCP EC50
Experimental: The ability of the compounds to mediate antibody-dependent cellular phagocytosis (ADCP) was assessed using RAW 264.7 macrophages and Spike RBD coated magnetic beads (https://www.acrobiosystems.com/P3194-SARS-CoV-2-Spike-RBD-coupled-Magnetic-Beads.html). Spike RBD coated magnetic beads (3 ul per well) were added to each well of a round bottom 96-well plates. RAW264.7 cells (50,000 cells per well) were added to the beads. Next, the compounds were administered to predetermined final concentrations. The cell-bead mixtures were incubated at 37° C. for 2 hours. The mixtures were then analyzed by flow cytometry.

SARS-CoV-2 Spike protein = SARS-CoV-2 Spike protein (Severe acute respiratory syndrome coronavirus 2, UniProt P0DTC2); assay: Ternary binding of SARS-CoV-2 Spike protein (293T cells expressing Spike-GFP, IgG-AF647, flow cytometry); type: cell-based; settings: 293T cells expressing Spike-GFP; IgG-AF647 10 μg/ml; repeat values/batches listed separately; read-out: SARS-CoV-2 Ternary binding EC50
[2] = biological target: T1, SARS-CoV-2 Spike A (wild-type) (Severe acute respiratory syndrome coronavirus 2, UniProt P0DTC2); assay: MSD ACE2 competition assay (inhibition of Spike binding with ACE2, ECL), A (wild-type)
T1 construct: purchased Meso Scale Diagnostics, LLC V-PLEX SARS-CoV-2 Panel 13 (ACE2) Kit / Panel 23 (ACE2) Kit

[3] = read-out: IC50 Wild Type, Wild Type Spike
[4] = IC50 Wild Type, Wild Type Spike

CC[C@H](C)[C@H](NC(=O)[C@H](CC(C)C)NC(=O)[C@H](CC(=O)O)NC(=O)[C@H](CO)NC(=O)[C@@H](NC(=O)[C@H](CCCNC(=N)N)NC(=O)[C@H](CCSC)NC(=O)[C@H](CO)NC(=O)[C@H](C)NC(=O)[C@H](CCC(=O)O)NC(=O)[C@H](C)NC(=O)[C@H](Cc1c[nH]cn1)NC(=O)CNC(=O)[C@H](CC(C)C)NC(=O)[C@H](CCC(=O)O)NC(=O)[C@H](CC(=O)O)NC(=O)[C@H](CC(C)C)NC(=O)[C@H](CC(C)C)NC(=O)[C@H](CCCNC(=N)N)NC(=O)[C@H](CCSC)NC(=O)[C@@H](NC(=O)[C@H](CCC(=O)O)NC(=O)[C@H](Cc1ccc(O)cc1)NC(=O)[C@@H](NC(=O)[C@H](CCCCN)NC(=O)[C@H](CCC(N)=O)NC(=O)[C@H](CC(C)C)NC(=O)[C@@H](NC(=O)[C@H](Cc1c[nH]c2ccccc12)NC(=O)[C@H](CCC(=O)O)NC(=O)[C@H](CCCCN)NC(=O)[C@H](CC(=O)O)NC(C)=O)[C@@H](C)CC)[C@@H](C)CC)[C@@H](C)CC)C(C)C)C(=O)N[C@@H](Cc1ccc(O)cc1)C(=O)N[C@@H](CCC(=O)O)C(=O)N[C@@H](Cc1ccccc1)C(=O)N[C@@H](CCSC)C(=O)N[C@@H](CCCCN)C(=O)N[C@@H](CCCCN)C(=O)NCC(=O)N[C@@H](CC(=O)O)C(=O)N[C@@H](CCC(=O)O)C(=O)N[C@@H](CCCNC(=N)N)C(=O)N[C@@H](CC(C)C)C(=O)N[C@@H](CC(C)C)C(=O)N[C@@H](CCC(=O)O)C(=O)N[C@@H](CCC(=O)O)C(=O)N[C@@H](C)C(=O)N[C@@H](CCC(=O)O)C(=O)N[C@@H](CCCNC(=N)N)C(=O)N[C@@H](CC(C)C)C(=O)N[C@@H](CC(C)C)C(=O)N[C@@H](CCC(=O)O)C(=O)N[C@@H](CCC(=O)O)C(=O)N[C@H](C(=O)N[C@@H](CCC(=O)O)C(=O)N[C@@H](CCCNC(=N)N)C(=O)NCCOCCOCCOCCOCCOCCOCCOCCOCCC(=O)NCCOCCOCCOCCOCCOCCOCCOCCOCCC(=O)N[C@@H](CC(=O)O)C(=O)N[C@H]1CSSC[C@@H](C(=O)N[C@H](C(N)=O)[C@@H](C)O)NC(=O)[C@H](Cc2c[nH]c3ccccc23)NC(=O)[C@H](C(C)C)NC(=O)[C@H](CC(C)C)NC(=O)[C@H](CCC(=O)O)NC(=O)CNC(=O)[C@H](CC(C)C)NC(=O)[C@H](Cc2c[nH]cn2)NC(=O)[C@H](Cc2c[nH]c3ccccc23)NC(=O)[C@H](C)NC1=O)C(C)C [Compound 124]
EC50 [1]: 0.43 nM

CC[C@H](C)[C@H](NC(=O)[C@H](CC(C)C)NC(=O)[C@H](CC(=O)O)NC(=O)[C@H](CO)NC(=O)[C@@H](NC(=O)[C@H](CCCNC(=N)N)NC(=O)[C@H](CCSC)NC(=O)[C@H](CO)NC(=O)[C@H](C)NC(=O)[C@H](CCC(=O)O)NC(=O)[C@H](C)NC(=O)[C@H](Cc1c[nH]cn1)NC(=O)CNC(=O)[C@H](CC(C)C)NC(=O)[C@H](CCC(=O)O)NC(=O)[C@H](CC(=O)O)NC(=O)[C@H](CC(C)C)NC(=O)[C@H](CC(C)C)NC(=O)[C@H](CCCNC(=N)N)NC(=O)[C@H](CCSC)NC(=O)[C@@H](NC(=O)[C@H](CCC(=O)O)NC(=O)[C@H](Cc1ccc(O)cc1)NC(=O)[C@@H](NC(=O)[C@H](CCCCN)NC(=O)[C@H](CCC(N)=O)NC(=O)[C@H](CC(C)C)NC(=O)[C@@H](NC(=O)[C@H](Cc1c[nH]c2ccccc12)NC(=O)[C@H](CCC(=O)O)NC(=O)[C@H](CCCCN)NC(=O)[C@H](CC(=O)O)NC(=O)[C@@H](CCC(=O)O)NC(=O)[C@@H]1CSCC(=O)N[C@@H](C)C(=O)N[C@@H](CO)C(=O)N[C@@H](Cc2ccc(O)cc2)C(=O)N[C@@H](Cc2c[nH]cn2)C(=O)N[C@@H](CC(C)C)C(=O)NCC(=O)N[C@@H](CCC(=O)O)C(=O)N[C@@H](CC(C)C)C(=O)N[C@@H](C(C)C)C(=O)N[C@@H](Cc2c[nH]c3ccccc23)C(=O)N2Cc3ccccc3C[C@H]2C(=O)NC(C)(C)C(=O)N1)[C@@H](C)CC)[C@@H](C)CC)[C@@H](C)CC)C(C)C)C(=O)N[C@@H](Cc1ccc(O)cc1)C(=O)N[C@@H](CCC(=O)O)C(=O)N[C@@H](Cc1ccccc1)C(=O)N[C@@H](CCSC)C(=O)N[C@@H](CCCCN)C(=O)N[C@@H](CCCCN)C(=O)NCC(=O)N[C@@H](CC(=O)O)C(=O)N[C@@H](CCC(=O)O)C(=O)N[C@@H](CCCNC(=N)N)C(=O)N[C@@H](CC(C)C)C(=O)N[C@@H](CC(C)C)C(=O)N[C@@H](CCC(=O)O)C(=O)N[C@@H](CCC(=O)O)C(=O)N[C@@H](C)C(=O)N[C@@H](CCC(=O)O)C(=O)N[C@@H](CCCNC(=N)N)C(=O)N[C@@H](CC(C)C)C(=O)N[C@@H](CC(C)C)C(=O)N[C@@H](CCC(=O)O)C(=O)N[C@@H](CCC(=O)O)C(=O)N[C@H](C(=O)N[C@@H](CCC(=O)O)C(=O)N[C@@H](CCCNC(=N)N)C(=O)O)C(C)C [Compound 130]
EC50 [1]: 1.3 nM and 1.5 nM

CC[C@H](C)[C@H](NC(=O)[C@H](CC(C)C)NC(=O)[C@H](CC(=O)O)NC(=O)[C@H](CO)NC(=O)[C@@H](NC(=O)[C@H](CCCNC(=N)N)NC(=O)[C@H](CCSC)NC(=O)[C@H](CO)NC(=O)[C@H](C)NC(=O)[C@H](CCC(=O)O)NC(=O)[C@H](C)NC(=O)[C@H](Cc1c[nH]cn1)NC(=O)CNC(=O)[C@H](CC(C)C)NC(=O)[C@H](CCC(=O)O)NC(=O)[C@H](CC(=O)O)NC(=O)[C@H](CC(C)C)NC(=O)[C@H](CC(C)C)NC(=O)[C@H](CCCNC(=N)N)NC(=O)[C@H](CCSC)NC(=O)[C@@H](NC(=O)[C@H](CCC(=O)O)NC(=O)[C@H](Cc1ccc(O)cc1)NC(=O)[C@@H](NC(=O)[C@H](CCCCN)NC(=O)[C@H](CCC(N)=O)NC(=O)[C@H](CC(C)C)NC(=O)[C@@H](NC(=O)[C@H](Cc1c[nH]c2ccccc12)NC(=O)[C@H](CCC(=O)O)NC(=O)[C@H](CCCCN)NC(=O)[C@H](CC(=O)O)NC(C)=O)[C@@H](C)CC)[C@@H](C)CC)[C@@H](C)CC)C(C)C)C(=O)N[C@@H](Cc1ccc(O)cc1)C(=O)N[C@@H](CCC(=O)O)C(=O)N[C@@H](Cc1ccccc1)C(=O)N[C@@H](CCSC)C(=O)N[C@@H](CCCCN)C(=O)N[C@@H](CCCCN)C(=O)NCC(=O)NCCOCCOCCOCCOCCOCCOCCOCCOCCC(=O)NCCOCCOCCOCCOCCOCCOCCOCCOCCC(=O)NCCOCCOCCOCCOCCOCCOCCOCCOCCC(=O)N[C@@H](CC(=O)O)C(=O)N[C@H]1CSSC[C@@H](C(=O)N[C@H](C(=O)O)[C@@H](C)O)NC(=O)[C@H](Cc2c[nH]c3ccccc23)NC(=O)[C@H](C(C)C)NC(=O)[C@H](CC(C)C)NC(=O)[C@H](CCC(=O)O)NC(=O)CNC(=O)[C@H](CC(C)C)NC(=O)[C@H](Cc2c[nH]cn2)NC(=O)[C@H](Cc2c[nH]c3ccccc23)NC(=O)[C@H](C)NC1=O [Compound 168]
EC50 (SARS-CoV-2 Spike protein): 0.19 nM | IC50 [2, 3]: 3.26 nM

CC[C@H](C)[C@H](NC(=O)[C@H](CC(C)C)NC(=O)[C@H](CC(=O)O)NC(=O)[C@H](CO)NC(=O)[C@@H]1CSSC[C@H](NC(=O)[C@@H](NC(=O)[C@H](CCC(=O)O)NC(=O)[C@H](Cc2ccc(O)cc2)NC(=O)[C@@H](NC(=O)[C@H](CCCCN)NC(=O)[C@H](CCC(N)=O)NC(=O)[C@H](CC(C)C)NC(=O)[C@@H](NC(=O)[C@H](Cc2c[nH]c3ccccc23)NC(=O)[C@H](CCC(=O)O)NC(=O)[C@H](CCCCN)NC(=O)[C@H](CC(=O)O)NC(=O)CCOCCOCCOCCOCCNC(=O)CCCC[C@@H]2SC[C@@H]3NC(=O)N[C@@H]32)[C@@H](C)CC)[C@@H](C)CC)[C@@H](C)CC)C(=O)N[C@@H](CCCNC(=N)N)C(=O)N[C@@H](CC(C)C)C(=O)N[C@@H](CC(C)C)C(=O)N[C@@H](CC(=O)O)C(=O)N[C@@H](CCC(=O)O)C(=O)N[C@@H](CC(C)C)C(=O)NCC(=O)N[C@@H](Cc2c[nH]cn2)C(=O)N[C@@H](C)C(=O)N[C@@H](CCC(=O)O)C(=O)N[C@@H](C)C(=O)N[C@@H](CO)C(=O)N[C@@H](CCSC)C(=O)N[C@@H](CCCNC(=N)N)C(=O)N1)C(=O)N[C@@H](Cc1ccc(O)cc1)C(=O)N[C@@H](CCC(=O)O)C(=O)N[C@@H](Cc1ccccc1)C(=O)N[C@@H](CCSC)C(=O)N[C@@H](CCCCN)C(=O)N[C@@H](CCCCN)C(=O)NCC(=O)O [Compound 181] ({Biotin-PEG4}-DKEWILQKIYEICRLLDELGHAEASMRCSDLIYEFMKKG-OH; disulfide 13-28)
EC50 [1]: 2.1 nM and 3.1 nM | EC50 (SARS-CoV-2 Spike protein): 0.77 nM and < 0.3 nM | IC50 [2, 4]: 2.51 nM

Ac-DCAWHLGELVWCTILQKIYEIMRLLDELGHAEASMRVSDLIYEFMKK (disulfide 2-12) [Compound 122]
EC50 (SARS-CoV-2 Spike protein): > 10 nM | IC50 [2, 4]: 33.5 nM

Ac-DKEWILQKIYEIMRLLDELGHAEASMRVSDLIYEFMKKGGGGGGGGGDCAWHLGELVWCT (disulfide 49-59) [Compound 166]
EC50 (SARS-CoV-2 Spike protein): 0.23 nM | IC50 [2, 3]: 16.6 nM

Ac-ILQKIYEICRLLDELGHAEASMRCSDLIYEFMKKGDCAWHLGELVWCT-NH2 (disulfide 9-24, 37-47) [Compound 141]
EC50 (SARS-CoV-2 Spike protein): 3.4 nM and 2.1 nM | IC50 [2, 3]: 25.1 nM and 43.8 nM and 30.1 nM

Ac-ILQKIYEIMRLCDELGHAEACMRVSDLIYEFMKKGDCAWHLGELVWCT-NH2 (disulfide 12-21, 37-47) [Compound 139]
EC50 (SARS-CoV-2 Spike protein): 17 nM and 13 nM | IC50 [2, 3]: 315 nM and 514 nM and 259 nM

Ac-ILQKIYEIMRLLDELGHAEASMRVSDLIYEFMKKDCAWHLGELVWCT (disulfide 36-46) [Compound 118]
EC50 (SARS-CoV-2 Spike protein): 0.53 nM and 0.61 nM | IC50 [2, 4]: 61.9 nM and 62.5 nM

Ac-QKIYEICRLLDELGHAEASMRCSDLIYEFMKKGDCAWHLGELVWCT-NH2 (disulfide 7-22, 35-45) [Compound 140]
EC50 (SARS-CoV-2 Spike protein): > 100 nM | IC50 [2, 3]: 1560 nM

Ac-QKIYEIMRLCDELGHAEACMRVSDLIYEFMKKGDCAWHLGELVWCT-NH2 (disulfide 10-19, 35-45) [Compound 164]
EC50 (SARS-CoV-2 Spike protein): > 100 nM | IC50 [2, 3]: > 10000 nM

ILQKIYEIMRLLDELGHAEASMRVSDLIYEFMKKDCAWHLGELVWCT (disulfide 36-46) [Compound 119]
EC50 (SARS-CoV-2 Spike protein): 2.4 nM and 2.9 nM | IC50 [2, 4]: 46.6 nM and 66.7 nM
